This is an account of results in patent US7737155B2, “Nitrogen-containing heterocyclic compounds and methods of use thereof” (Schering Corporation, priority 2005, dated 2010).

A word on the EC50: it is the concentration needed to bring the measured effect to its halfway point.

SMILES strings stand for the structures. Where only a bound is given, the exact number is not on record here.

For one assay, the target named is recombinant human nicotinic acid receptor (NAR) (Homo sapiens, UniProt Q8TDS4). Put plainly: Nicotinic Acid Receptor Assay: inhibition of forskolin-stimulated cAMP accumulation in CHO cells (MesoScale Discovery cAMP kit). In kind it is cell-based. The following applies: CHO cells expressing recombinant human NAR; forskolin-stimulated cAMP; read-out: NA EC50 camp. On the procedure: The nicotinic acid receptor agonist activity of the inventive compounds was determined by following the inhibition of forskolin-stimulated cAMP accumulation in cells using the MesoScale Discovery cAMP detection kit following the manufacture's protocol. Briefly, Chinese Hamster Ovary (CHO) cells expressing recombinant human nicotinic acid receptor (NAR) were harvested enzymatically, washed 1× in phosphate buffered saline (PBS) and resuspended in PBS containing 0.5 mM IBMX at 3×10^6 cells/mL. Ten μL of cell suspension was added to each well of a 384-well plate which contained 10 μL of test compounds. Test compounds were diluted with PBS containing 6 μM of forskolin. Plates were incubated for 30 minutes at room temperature after the addition of cells. Lysis buffer containing cAMP-Tag was added to each well (10 μL/well) as per the manufacturer's protocol. Plates were then incubated from 45 minutes to overnight. Prior to reading, 10 μL of read buffer was added to each well, and the plate was read in a Sector 6000 plate imager. The signal was converted to cAMP concentration using a standard curve run on each plate.
recombinant human nicotinic acid receptor (NAR), sequence (Q8TDS4 whole entry): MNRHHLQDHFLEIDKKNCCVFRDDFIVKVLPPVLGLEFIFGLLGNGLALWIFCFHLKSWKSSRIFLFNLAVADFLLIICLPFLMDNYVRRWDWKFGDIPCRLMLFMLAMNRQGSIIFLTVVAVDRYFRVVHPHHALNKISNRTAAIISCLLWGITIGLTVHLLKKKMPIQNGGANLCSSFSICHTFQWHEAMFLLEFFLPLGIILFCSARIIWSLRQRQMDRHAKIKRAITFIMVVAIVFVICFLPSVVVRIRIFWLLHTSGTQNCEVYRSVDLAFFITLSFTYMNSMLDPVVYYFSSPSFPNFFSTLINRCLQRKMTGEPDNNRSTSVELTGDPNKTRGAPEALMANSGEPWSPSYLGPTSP
Take `O=c1cc(CCCCC2CC2)c2c(=O)n(C3CCC3)c(=O)[nH]c2o1` [Compound 200]: the concentration for a half-maximal effect (EC50) fell in the range of 100 to 1000 nM.
Consider `O=c1[nH]c(=O)c2c(CC3C[C@@H]4CC[C@H]3C4)cc(=O)oc2[nH]1` (stereo partly shown) [Compound 201], for which the EC50 was greater than 1000 nM.
Still for that read-out and setting: to `O=c1[nH]c(=O)c2c(CC3Cc4ccccc4C3)cc(=O)oc2[nH]1` [Compound 202] belongs 100 to 1000 nM; to `CCc1c(-c2ccccc2)c(=O)oc2[nH]c(=O)n(C3CCC3)c(=O)c12` [Compound 203], greater than 1000 nM; to `CCC(C)(C)Cc1cc(=O)oc2[nH]c(=O)[nH]c(=O)c12` [Compound 204], greater than 1000 nM.
On the same count and under the same terms, next, `O=c1[nH]c(=O)c2c(Cc3ccc(-c4ccccc4F)cc3)cc(=O)oc2[nH]1` [Compound 205]: 100 to 1000 nM.
As to `O=c1[nH]c(=O)c2c(CC3CC3)cc(=O)oc2[nH]1` [Compound 206], the EC50 fell in the range of 100 to 1000 nM.
Same read-out and setting: to `COc1ccc(-c2ccc(Cc3cc(=O)oc4[nH]c(=O)[nH]c(=O)c34)cc2)cc1` [Compound 207] belongs greater than 1000 nM; to `O=c1[nH]c(=O)c2c(CCCOc3ccccc3)cc(=O)oc2[nH]1` [Compound 208], greater than 1000 nM; to `COCCCc1cc(=O)oc2[nH]c(=O)[nH]c(=O)c12` [Compound 209], 100 to 1000 nM.
For the molecule `O=c1cc(CCCCC2CC2)c2c(=O)[nH]c(=O)n(C3CCC3)c2o1` [Compound 210], the half-maximal effective concentration (EC50) fell in the range of 100 to 1000 nM.
On the same count and under the same terms, next, `O=c1[nH]c(=O)c2c3c(c(=O)oc2[nH]1)CCCCCC3` [Compound 211]: greater than 1000 nM; `O=c1[nH]c(=O)c2c(C3CCCCC3)cc(=O)oc2[nH]1` [Compound 212]: 100 to 1000 nM.
The same measure, in the same setting: next, `O=c1[nH]c(=O)c2c(CC3CCCC(C(F)(F)F)C3)cc(=O)oc2[nH]1` (stereo not shown) [Compound 213]: 100 to 1000 nM.
As to `CCCC/C=C/c1c(CC)c2c(=O)[nH]c(=O)[nH]c2oc1=O` [Compound 214], the 50% effective concentration (EC50) is greater than 1000 nM.
Turning to `O=c1[nH]c(=O)c2c(CCC34CC5CC(CC(C5)C3)C4)cc(=O)oc2[nH]1` [Compound 215], the EC50 is greater than 1000 nM.
On the same count and under the same terms, next, `COC(=O)CCc1cc(=O)oc2[nH]c(=O)[nH]c(=O)c12` [Compound 216]: 100 to 1000 nM; `CC#CCCc1cc(=O)oc2[nH]c(=O)[nH]c(=O)c12` [Compound 217]: greater than 1000 nM.
As to `CCCC(C)c1cc(=O)oc2[nH]c(=O)[nH]c(=O)c12` (stereo not shown) [Compound 218], the EC50 lay within 100 to 1000 nM.
Still for that read-out and setting: next, `CCc1c(C#Cc2ccccc2)c(=O)oc2[nH]c(=O)[nH]c(=O)c12` [Compound 219]: greater than 1000 nM; `O=c1[nH]c(=O)c2c(CCC#Cc3ccccc3)cc(=O)oc2[nH]1` [Compound 220]: greater than 1000 nM; `CC(C)(C)OC(=O)N1CCC(Cc2cc(=O)oc3[nH]c(=O)[nH]c(=O)c23)CC1` [Compound 221]: greater than 1000 nM.
On to `CCOC(=O)CCc1cc(=O)oc2[nH]c(=O)[nH]c(=O)c12` [Compound 222], for which the concentration for a half-maximal effect (EC50) is greater than 1000 nM.
Consider `O=c1[nH]c(=O)c2c(CC3CCC(F)(F)CC3)cc(=O)oc2[nH]1` [Compound 223], for which the EC50 is 0.001 to 100 nM.
Consider `O=c1cc(CCCC2CC2)c2c(=O)n(C3CCC3)c(=O)[nH]c2o1` [Compound 224], for which the EC50 is 0.001 to 100 nM.
The same measure, in the same setting: next, `CSCCCc1cc(=O)oc2[nH]c(=O)[nH]c(=O)c12` [Compound 225]: 0.001 to 100 nM; `C#CCCCCc1cc(=O)oc2[nH]c(=O)[nH]c(=O)c12` [Compound 226]: 0.001 to 100 nM; `O=c1[nH]c(=O)c2c(C3CCCC3)cc(=O)oc2[nH]1` [Compound 227]: greater than 1000 nM.
For `O=C(NCCCc1cc(=O)oc2[nH]c(=O)[nH]c(=O)c12)OCc1ccccc1` [Compound 228], the 50% effective concentration (EC50) was greater than 1000 nM.
Same read-out and setting: to `O=c1[nH]c(=O)c2c(CCc3cccs3)cc(=O)oc2[nH]1` [Compound 229] belongs 0.001 to 100 nM; to `N#Cc1cccc(Cc2cc(=O)oc3[nH]c(=O)[nH]c(=O)c23)c1` [Compound 231], greater than 1000 nM; to `O=C(OCc1ccccc1)N1CCC(Cc2cc(=O)oc3[nH]c(=O)[nH]c(=O)c23)C1` (stereo not shown) [Compound 233], greater than 1000 nM.
In the case of `O=C(OCc1ccccc1)N1CCC(CCc2cc(=O)oc3[nH]c(=O)[nH]c(=O)c23)CC1` [Compound 234], the 50% effective concentration (EC50) was greater than 1000 nM.
Regarding `O=c1[nH]c(=O)c2c(CC3CCC4CC34)cc(=O)oc2[nH]1` (stereo not shown) [Compound 235], the EC50 is 0.001 to 100 nM.
Same read-out and setting: next, `CC(=O)NCCCc1cc(=O)oc2[nH]c(=O)[nH]c(=O)c12` [Compound 237]: greater than 1000 nM; `CCOCCCc1cc(=O)oc2[nH]c(=O)[nH]c(=O)c12` [Compound 239]: 0.001 to 100 nM; `CC(C)(C)Cc1cc(=O)oc2[nH]c(=O)[nH]c(=O)c12` [Compound 240]: greater than 1000 nM.
Consider `O=c1cc(CCC2CCCC2)c2c(=O)n(C3CCC3)c(=O)[nH]c2o1` [Compound 241], for which the concentration for a half-maximal effect (EC50) is 0.001 to 100 nM.
`O=c1cc(CCC2CCCC2)c2c(=O)[nH]c(=O)n(C3CCC3)c2o1` [Compound 242]: the half-maximal effective concentration (EC50) was greater than 1000 nM.
Take `Cc1ccccc1-c1cc(CCCc2cc(=O)oc3[nH]c(=O)[nH]c(=O)c23)on1` [Compound 243]: the EC50 was in the range of 100 to 1000 nM.
Take `O=c1[nH]c(=O)c2c(CC3CCNC3)cc(=O)oc2[nH]1` (stereo not shown) [Compound 244]: the EC50 was greater than 1000 nM.
The same measure, in the same setting: next, `CC(C)CCc1cc(=O)oc2[nH]c(=O)n(C3CCC3)c(=O)c12` [Compound 245]: 0.001 to 100 nM.
In the case of `CC1CCC(Cc2cc(=O)oc3[nH]c(=O)n(C4CCC4)c(=O)c23)CC1` (stereo not shown) [Compound 246], the EC50 is greater than 1000 nM.
As for `CCC(C)CCc1cc(=O)oc2[nH]c(=O)[nH]c(=O)c12` (stereo not shown) [Compound 247], the concentration giving a half-maximal response (EC50) was in the range of 0.001 to 100 nM.
For `CC(Cc1cc(=O)oc2[nH]c(=O)[nH]c(=O)c12)CC(C)(C)C` (stereo not shown) [Compound 248], the EC50 was greater than 1000 nM.
Take `O=c1[nH]c(=O)c2c(CCCc3cc(-c4cccc(C(F)(F)F)c4)no3)cc(=O)oc2[nH]1` [Compound 249]: the half-maximal effective concentration (EC50) fell in the range of 100 to 1000 nM.
Turning to `CCOC(=O)Cn1cc(CCCc2cc(=O)oc3[nH]c(=O)[nH]c(=O)c23)nn1` [Compound 250], the concentration for a half-maximal effect (EC50) was greater than 1000 nM.
The same measure, in the same setting: to `O=c1[nH]c(=O)c2c(CCCc3cn(Cc4ccccc4)nn3)cc(=O)oc2[nH]1` [Compound 251] belongs 100 to 1000 nM; to `Cc1cc(=O)oc2[nH]c(=O)n(C3CCC3)c(=O)c12` [Compound 252], 0.001 to 100 nM; to `CC/C=C\CCc1cc(=O)oc2c1c(=O)[nH]c(=O)n2CC1CC1` [Compound 253], greater than 1000 nM.
For `CC/C=C\CCc1cc(=O)oc2[nH]c(=O)n(CC3CC3)c(=O)c12` [Compound 254], the half-maximal effective concentration (EC50) is greater than 1000 nM.
On the same count and under the same terms, next, `O=c1cc(CCCc2cccs2)c2c(=O)[nH]c(=O)n(CC3CC3)c2o1` [Compound 255]: greater than 1000 nM; `O=c1cc(CCCc2cccs2)c2c(=O)n(CC3CC3)c(=O)[nH]c2o1` [Compound 256]: greater than 1000 nM; `CCCCc1cc(=O)oc2c1c(=O)[nH]c(=O)n2CC1CC1` [Compound 257]: greater than 1000 nM.
Same read-out and setting: to `CCCCc1cc(=O)oc2[nH]c(=O)n(CC3CC3)c(=O)c12` [Compound 258] belongs 100 to 1000 nM; to `CC(C)CCc1cc(=O)oc2c1c(=O)[nH]c(=O)n2CC1CC1` [Compound 259], greater than 1000 nM; to `CC(C)CCc1cc(=O)oc2[nH]c(=O)n(CC3CC3)c(=O)c12` [Compound 260], greater than 1000 nM.
Same read-out and setting: to `COc1ccc(-c2cc(CCCc3cc(=O)oc4[nH]c(=O)[nH]c(=O)c34)on2)cc1` [Compound 261] belongs 100 to 1000 nM; to `CC(C)(C)CCCc1cc(=O)oc2[nH]c(=O)[nH]c(=O)c12` [Compound 262], 0.001 to 100 nM; to `CC(C)(C)CCc1cc(=O)oc2[nH]c(=O)[nH]c(=O)c12` [Compound 263], greater than 1000 nM.

Still in this assay, the particulars now being: inhibition of forskolin-stimulated cAMP accumulation, CHO cells expressing recombinant human NAR; read-out: NA EC50 camp.
Take `CCc1cc(=O)oc2[nH]c(=O)n(C3CCC3)c(=O)c12` [Compound 35]: the concentration giving a half-maximal response (EC50) was 9 nM.
In the case of `CCc1cc(=O)oc2nc(OCc3ccccc3F)[nH]c(=O)c12` [Compound 74], the EC50 turned out to be 183 nM.
Still for that read-out and setting: next, `CCc1cc(=O)oc2nc(OC(C)c3ccccc3F)[nH]c(=O)c12` (stereo not shown) [Compound 90]: 475 nM; `CCCCc1cc(=O)oc2[nH]c(=O)[nH]c(=O)c12` [Compound 102]: 31 nM; `O=c1[nH]c(=O)c2c(CC3CCCCC3)cc(=O)oc2[nH]1` [Compound 103]: 74.3 nM.
As to `O=c1[nH]c(=O)c2c(CC3CCCC3)cc(=O)oc2[nH]1` [Compound 104], the EC50 amounted to 47 nM.
Still for that read-out and setting: to `O=c1[nH]c(=O)c2c(CCCCC(F)(F)F)cc(=O)oc2[nH]1` [Compound 112] belongs 14.4 nM; to `O=c1[nH]c(=O)c2c(CC3CC3)cc(=O)oc2[nH]1` [Compound 117], 155 nM; to `O=c1[nH]c(=O)c2c(CCC3CCCCC3)cc(=O)oc2[nH]1` [Compound 124], 78.5 nM.
Same read-out and setting: to `O=c1[nH]c(=O)c2c(CCC3CCCC3)cc(=O)oc2[nH]1` [Compound 125] belongs 1.2 nM; to `CC1CCC(Cc2cc(=O)oc3[nH]c(=O)[nH]c(=O)c23)CC1` (stereo not shown) [Compound 127], 57.3 nM; to `C#CCCCc1cc(=O)oc2[nH]c(=O)[nH]c(=O)c12` [Compound 128], 6.3 nM.
Regarding `O=c1[nH]c(=O)c2c(Cc3ccsc3)cc(=O)oc2[nH]1` [Compound 135], the 50% effective concentration (EC50) was determined as 4.8 nM.
For the molecule `O=c1[nH]c(=O)c2c(CC3CCC(F)(F)CC3)cc(=O)oc2[nH]1` [Compound 223], the half-maximal effective concentration (EC50) worked out at 26.5 nM.
Still for that read-out and setting: to `O=c1cc(CCC2CCCC2)c2c(=O)n(C3CCC3)c(=O)[nH]c2o1` [Compound 241] belongs 13 nM; to `CC(C)(C)CCCc1cc(=O)oc2[nH]c(=O)[nH]c(=O)c12` [Compound 262], 49.9 nM.
